Results: publication PMC4608554 (Bioorganic & medicinal chemistry, 2015)
“And” between values parts separate entries of the source, which are not always exact repeats. Identical values can stand only once. “Also recorded” adds a separate entry of the source. Like-named read-outs stand apart in the source and are kept apart here.

Experiments:
[1] = system: non-iron-overloaded, bile duct-cannulated rats; settings: cited from earlier work
[2] = 2:1 complex with Fe(III); cited from earlier work
rats [3] = settings: cited from earlier work
[4] = system: iron-overloaded Cebus apella monkeys; settings: po, cited from earlier work
patients = settings: cited from earlier work
[5] = rat liver, sc 300 µmol/kg, cited from earlier work; for fraction of parent polyether cleaved to 2 (from 5) or 3 (from 6): 2 h
[6] = even when administered b.i.d.; cited from earlier work
rats [7] = settings: rat, cited from earlier work
[8] = Tissue distribution/metabolism of chelators in rats; type: in vivo, rat (male Sprague-Dawley); settings: for concentration in kidney: rat kidney; for presence in heart: later time points (2-8 h) after 11 sc 300 µmol/kg
[9] = system: non-iron-overloaded, bile duct-cannulated rats; experiment: Chelator-induced iron clearance; type: in vivo; settings: po, 300 µmol/kg
male Sprague-Dawley rats = experiment: 10-day toxicity trial of 11 in rats; type: in vivo, rat; settings: 384 µmol/kg/day
[10] = system: iron-overloaded Cebus apella monkeys; experiment: Chelator-induced iron clearance; type: in vivo; settings: 75 µmol/kg, same animals po and sc
[11] = bile duct-cannulated rats, po, 150 µmol/kg
[12] = rat liver, 8 h after 8 sc 300 µmol/kg
[13] = rat plasma, 8 h after 8 sc 300 µmol/kg
[14] = rat heart, 0.5 h after 11 sc 300 µmol/kg
[15] = rat pancreas, 0.5 h after 11 sc 300 µmol/kg
[16] = rat plasma, 4 h after 11 sc 300 µmol/kg
[17] = rat liver, 0.5 h after 11 sc 300 µmol/kg
[18] = rat liver, 1 h after 11 sc 300 µmol/kg
[19] = rat heart, 1 h after 11 sc 300 µmol/kg
[20] = rat liver, 8 h after 11 sc 300 µmol/kg
[21] = rat pancreas, 1 h after 11 sc 300 µmol/kg

CCCCOc1ccc(C2=N[C@@H](C(=O)O)CS2)c(O)c1 [(S)-2-(4-butoxy-2-hydroxyphenyl)-4,5-dihydro-4-thiazolecarboxylic acid]
time to deaths ([1]; 4'-butoxy analogue of 2): ≤ 24 h

C[C@]1(C(=O)O)CSC(c2ncccc2O)=N1 [compound 1, (S)-4,5-dihydro-2-(3-hydroxy-2-pyridinyl)-4-methyl-4-thiazolecarboxylic acid]
cumulative formation constant [2]: 4 × 10^29 | renal toxicity in rats (rats [3]): unacceptable renal toxicity | Primate ICE (%) ([4]; 150 µmol/kg, historical, ref 41 (1), ref 53 (2)): 16.1 ± 8.5% | Rodent ICE (%) ([1]; rat, po, 150 µmol/kg): 5.5 ± 3.2%

C[C@]1(C(=O)O)CSC(c2ccc(O)cc2O)=N1 [compound 2, (S)-2-(2,4-dihydroxyphenyl)-4,5-dihydro-4-methyl-4-thiazolecarboxylic acid]
tolerability in patients (patients; 5, 10, or 15 mg/kg/day once daily (s.i.d) for up to 12 weeks): well tolerated | renal toxicity in patients (increases in BUN and SCr) (patients; b.i.d. 12.5 mg/kg (25 mg/kg/d), three patients after 4-5 weeks): unacceptable renal toxicity

COc1ccc(C2=N[C@@](C)(C(=O)O)CS2)c(O)c1 [compound 4, (S)-4,5-dihydro-2-(2-hydroxy-4-methoxyphenyl)-4-methyl-4-thiazolecarboxylic acid]
fraction of parent demethylated to 2 ([5]; 2 h post drug): about 30%

COCCOCCOCCOc1ccc(C2=N[C@@](C)(C(=O)O)CS2)c(O)c1 [compound 5, (S)-4,5-dihydro-2-[2-hydroxy-4-(3,6,9-trioxadecyloxy)phenyl]-4-methyl-4-thiazolecarboxylic acid]
renal toxicity [6]: no renal toxicity | fraction of parent polyether cleaved to 2 (from 5) or 3 (from 6) [5]: 2%

COCCOCCOCCOc1cccc(C2=N[C@@](C)(C(=O)O)CS2)c1O [compound 6, (S)-4,5-dihydro-2-[2-hydroxy-3-(3,6,9-trioxadecyloxy)phenyl]-4-methyl-4-thiazolecarboxylic acid]
renal toxicity [6]: no renal toxicity | fraction of parent polyether cleaved to 2 (from 5) or 3 (from 6) [5]: 2.6% | ICE [1, 11]: 18.7 ± 2.9% | iron decorporated [1, 11]: 0.782 ± 0.121 mg/kg | quantity of iron excreted ([1]; bile duct-cannulated rats, po, 300 µmol/kg): 0.887 ± 0.367 mg/kg

COCCOCCOc1ccc(C2=N[C@@](C)(C(=O)O)CS2)c(O)c1 [compound 7, (S)-4,5-dihydro-2-[2-hydroxy-4-(3,6-dioxaheptyloxy)phenyl]-4-methyl-4-thiazolecarboxylic acid]
histopathology (rats [7]; extensive tissues): no drug-related abnormalities were identified | urinary Kim-1 excretion (rats [7]; up to 28 d): did not elicit any increases | Primate ICE (%) ([4]; 75 µmol/kg, as monosodium salt): 28.7 ± 12.4% | Primate ICE (%) ([4]; 75 µmol/kg, in capsules): ~ 26% and 26.3 ± 9.9% | cleavage of the terminal methyl of 7 to alcohol 8 ([8]; rat tissues, 7 sc 300 µmol/kg): did occur | cleavage of 7 at the 4'-(HO) to 2 ([8]; rats, 7 sc 300 µmol/kg): does not sustain metabolic cleavage

C[C@]1(C(=O)O)CSC(c2ccc(OCCOCCO)cc2O)=N1 [compound 8, (S)-4,5-dihydro-2-[2-hydroxy-4-(5-hydroxy-3-oxapentyloxy)phenyl]-4-methyl-4-thiazolecarboxylic acid]
share of the drug (parent + metabolite) ([8]; rat liver, 0.5 h after 8 sc 300 µmol/kg): 53% | presence in liver [8, 12]: very little | share of total drug concentration ([8]; rat plasma, 0.5 h after 7 sc 300 µmol/kg): 5% | presence in plasma [8, 13]: Neither the parent 8 nor the metabolite 9 was found

C[C@]1(C(=O)O)CSC(c2ccc(OCCOCC(=O)O)cc2O)=N1 [compound 9, (S)-4,5-dihydro-2-[2-hydroxy-4-(4-carboxy-3-oxabutyloxy)phenyl]-4-methyl-4-thiazolecarboxylic acid]
share of the drug (parent + metabolite) ([8]; rat liver, 1 h after 8 sc 300 µmol/kg): 59% | presence in liver [8, 12]: no metabolite 9 remains | share of drug converted to / in the form of metabolite ([8]; rat plasma, 0.5 h after 8 sc 300 µmol/kg): ~60% | share of drug in the form of the metabolite ([8]; rat plasma, 2 h after 8 sc 300 µmol/kg): 88% | presence in plasma [8, 13]: Neither the parent 8 nor the metabolite 9 was found | presence of carboxylic acid 9 in tissues after 7 ([8]; rat tissues, 7 sc 300 µmol/kg): not detected

COCCCCCCOc1ccc(C2=N[C@@](C)(C(=O)O)CS2)c(O)c1 [compound 10, (S)-4,5-dihydro-2-[2-hydroxy-4-(6-methoxyhexyloxy)phenyl]-4-methyl-4-thiazolecarboxylic acid]
overt toxicity in rats ([9]; bile duct-cannulated rats): profoundly toxic; also recorded: very toxic | time of death of one of the animals post drug ([9]; bile duct-cannulated rats, remaining rodents euthanized at 24 h): ~ 22 h | time of peak drug-induced iron excretion post drug ([9]; rat): 6 h

C[C@]1(C(=O)O)CSC(c2ccc(OCCCCCCO)cc2O)=N1 [compound 11, (S)-4,5-dihydro-2-[2-hydroxy-4-(6-hydroxyhexyloxy)phenyl]-4-methyl-4-thiazolecarboxylic acid]
survival (male Sprague-Dawley rats; rat, po by gavage once daily for ten days): survived | histopathology (25 tissues/rat) (male Sprague-Dawley rats; rat, po once daily x 10 d): could not identify any drug-related abnormalities | overall toxicity (male Sprague-Dawley rats; rodents, once daily for 10 days): complete lack of toxicity | overt toxicity in rats ([9]; bile duct-cannulated rats): did not present with any overt toxicity; also recorded: did not display any overt toxicity; also recorded: did not elicit any signs of overt toxicity | concentration in heart [8, 14]: 26 nmol/g wet weight | concentration in kidney ([8]; 0.5 h after 11 sc 300 µmol/kg): trace amounts | presence in liver ([8]; rat liver, any of the time points (0.5-8 h) after 11 sc 300 µmol/kg): not found | concentration in pancreas [8, 15]: < 5 nmol/g wet weight | share of the total (parent + metabolites) [8, 16]: no longer detectable | conversion of alcohol 11 to metabolites 12-14 ([8]; rats, 11 sc 300 µmol/kg): Significant conversion; also recorded: quickly converted; also recorded: very quickly converted

C[C@]1(C(=O)O)CSC(c2ccc(OCCCCCC(=O)O)cc2O)=N1 [compound 12, (S)-4,5-dihydro-2-[2-hydroxy-4-(5-carboxypentyloxy)phenyl]-4-methyl-4-thiazolecarboxylic acid]
presence in cardiac tissue ([8]; rat heart, any of the time points after 11 sc 300 µmol/kg): not found | concentration in kidney ([8]; 0.5 h after 11 sc 300 µmol/kg): found | concentration in kidney ([8]; 1 h after 11 sc 300 µmol/kg): found | presence in liver ([8]; rat liver, 2, 4, or 8 h after 11 sc 300 µmol/kg): not detected | share of the total drug (parent + metabolites) [8, 17]: 11% | share of the total drug (parent + metabolites) [8, 18]: 2% | presence in pancreas ([8]; rat pancreas, any of the time points after 11 sc 300 µmol/kg): not found | presence in plasma ([8]; rat plasma, 0.5-8 h after 11 sc 300 µmol/kg): None

C[C@]1(C(=O)O)CSC(c2ccc(OCCCC(=O)O)cc2O)=N1 [compound 13, (S)-4,5-dihydro-2-[2-hydroxy-4-(3-carboxypropyloxy)phenyl]-4-methyl-4-thiazolecarboxylic acid]
sc ICE vs po ICE in the primates (times higher) [10]: 3.4 times | concentration in heart [8, 14]: ~ 46 nmol/g wet weight | concentration in heart [8, 19]: ~ 46 nmol/g wet weight | presence in heart ([8]; rat heart): not found | concentration in kidney ([8]; 0.5 h after 11 sc 300 µmol/kg): ~ 300 nmol/g wet weight | concentration in kidney ([8]; 1 h after 11 sc 300 µmol/kg): ~ 300 nmol/g wet weight | concentration in kidney ([8]; 8 h after 11 sc 300 µmol/kg): not detectable | share of the total drug (parent + metabolites) [8, 17]: 71% | share of the total drug (parent + metabolites) [8, 18]: 73% | share of the total drug (parent + metabolites) ([8]; rat liver, 2 h after 11 sc 300 µmol/kg): 66% | share of the total drug (parent + metabolites) ([8]; rat liver, 4 h after 11 sc 300 µmol/kg): 70% | presence in liver [8, 20]: no 13 remained | concentration in pancreas [8, 15]: 19 nmol/g wet weight | concentration in pancreas [8, 21]: 23 nmol/g wet weight | share of the total (parent + metabolites) ([8]; rat plasma, 0.5 h after 11 sc 300 µmol/kg): 62% | share of the total (parent + metabolites) [8, 16]: 50% | share of the total plasma drug concentration ([8]; rat plasma, 8 h after 11 sc 300 µmol/kg): 65%

C[C@]1(C(=O)O)CSC(c2ccc(OCC(=O)O)cc2O)=N1 [compound 14, (S)-4,5-dihydro-2-[2-hydroxy-4-(carboxymethoxy)phenyl]-4-methyl-4-thiazolecarboxylic acid]
sc ICE vs po ICE in the primates (times higher) [10]: 5.3 times | concentration in heart [8, 14]: 17 nmol/g wet weight | concentration in heart [8, 19]: 23 nmol/g wet weight | presence in heart ([8]; rat heart): not found | concentration in kidney ([8]; 0.5 h after 11 sc 300 µmol/kg): 156 nmol/g wet weight | concentration in kidney ([8]; 1 h after 11 sc 300 µmol/kg): 201 nmol/g wet weight | concentration in kidney ([8]; 2 h after 11 sc 300 µmol/kg): 161 nmol/g wet weight | concentration in kidney ([8]; 8 h after 11 sc 300 µmol/kg): 5 nmol/g wet weight | share of the total drug (parent + metabolites) [8, 17]: 18% | share of the total drug (parent + metabolites) [8, 18]: 25% | presence in liver [8, 20]: trace amounts | concentration in pancreas [8, 15]: Trace amounts | concentration in pancreas [8, 21]: Trace amounts | concentration in pancreas ([8]; rat pancreas, 2 h after 11 sc 300 µmol/kg): Trace amounts | share of the total (parent + metabolites) [8, 16]: 50%
